In article PMC12260505, “First-in-Human Phase I/IIa Study of the First-in-Class CDK2/4/6 Inhibitor PF-06873600 Alone or with Endocrine Therapy in Patients with Breast Cancer” (Clinical Cancer Research, 2025):

Key:
phosphorylated Rb (pRb) = assay: IHC of pRb (H-score) in paired tumor biopsies; format: in vivo, human
Method: The pharmacodynamic effects of PF-06873600 were assessed by IHC staining of pRb and Ki67 in tumor biopsy samples collected at screening and day 1 of cycle 2 (4 hours after dose). Immunostaining was performed on […] formalin-fixed, paraffin-embedded tissue sections using rabbit monoclonal anti-Rb (Ser807/811) antibody (clone D20B12, Cell Signaling Technology) and rabbit monoclonal anti-Ki67 antibody (Ventana Medical Systems), respectively. pRb and Ki67 expressions were assessed semiquantitatively by a board-certified pathologist. Scoring was performed using the percentage of cells positive for Ki67 or a histo-score (H-score) methodology for pRb based on staining intensity and the percentage of positive cells. Intensity was scored as 0, none; 1, weak; 2, moderate; or 3, strong, and H-scores were calculated as follows: H-score = [fraction of cells with intensity grade 1 (%)] + [fraction of cells with intensity grade 2 (%) × 2] + [fraction of cells with intensity grade 3 (%) × 3].

CDK4 = target: CDK4; set-up: method as in PMID 34110834; conditions: cited from earlier work

What does the source list for C[C@@]1(O)CCC[C@H]1n1c(=O)c(C(F)F)cc2cnc(NC3CCN(S(C)(=O)=O)CC3)nc21 [PF-06873600]?
Median change in pRb H-score from baseline (phosphorylated Rb (pRb); IR 25 mg twice daily monotherapy, cycle 2 day 1, HR+/HER2− mBC tumor biopsies): –16.5%; Median percentage change in pRb H-score from baseline (phosphorylated Rb (pRb); IR 25 mg twice daily/fulvestrant combination, cycle 2 day 1): –31.9%; Ki (CDK4): 1.25 nM
